According to patent US5688936A, “Vesicle membrane transport proteins” (priority 1993, dated 1997):
Entries after “also recorded” stand apart in the source; their conditions may differ.

How the values were obtained:
[1] = tested on: transfected CHO cells; assay: Survival/selection/growth of transfected CHO cells in MPP+; assay type: cell-based, Chinese hamster; details: reserpine concentration not stated
Procedure: Using the above methods, the PC12 cDNA library constructed in the plasmid expression vector CDM8 was transfected into CHO cells. Using the selectable marker RSV- neo (Walker, Weizmann Institute, Israel), […] independent stable transformants were obtained after selection in the neomycin analogue G418 at 400 μg/ml effective dose. These cells were then selected at 40% confluence in 1 mM MPP^+. […] However, at four weeks, a colony of cells without refractile inclusions appeared and rapidly covered the plate. The apparently normal growth of these cells in the presence of 1 mM MPP^+ stands in marked contrast to all of the resistant clones obtained without transfection, which grew very slowly if at all. […] However, at 1 mM MPP^+, the resistant cells did show some toxicity, particularly when the assay was performed at higher cell density.
To identify the cDNA sequences responsible for conferring resistance to MPP^+, integrated plasmids were rescued from the primary CHO transformant obtained as described above in Example 1. […] The primary MPP^+ -resistant CHO transformant was amplified in culture and following cell lysis in 5M guanidinium isothiocyanate, the high molecular weight DNA prepared by repeated precipitation in isopropanol. After digestion with Not I, which cleaves the CDM8 vector once downstream of the cDNA insertion site as well as at rare eight-nucleotide recognition sites elsewhere in the genome, the DNA was religated and transformed into E. coli by electroporation as described by Stern-Bach et al., J. Biol. Chem. 265:3961-3966 (1990). Four pools of the derived plasmids containing approximately 50 colonies each were transfected into CHO cells and after two days were selected in 1 mM MPP^+. Four weeks later, one pool gave rise to several MPP^+ -resistant colonies, two pools gave rise to 1-2 colonies and the fourth pool and CDM8 vector gave rise to no healthy, resistant colonies. Restriction enzyme analysis of the plasmids in the pool conferring the highest frequency of resistance to MPP^+ indicated three independent clones of 1.0, 1.3 and 2.5 kb. […]

[2] = tested on: bacterial BMR transporter; details: cited from earlier work
[3] = biological target: T1, chromaffin granule amine transport protein (Rattus norvegicus, UniProt Q01818); assay: Quantitative [3H]dopamine transport assay with mpp^res CHO cell homogenate; assay type: biochemical; details: dose-response, 2-minute incubation (FIG. 15C)
T1 sequence (Q01818 1-521): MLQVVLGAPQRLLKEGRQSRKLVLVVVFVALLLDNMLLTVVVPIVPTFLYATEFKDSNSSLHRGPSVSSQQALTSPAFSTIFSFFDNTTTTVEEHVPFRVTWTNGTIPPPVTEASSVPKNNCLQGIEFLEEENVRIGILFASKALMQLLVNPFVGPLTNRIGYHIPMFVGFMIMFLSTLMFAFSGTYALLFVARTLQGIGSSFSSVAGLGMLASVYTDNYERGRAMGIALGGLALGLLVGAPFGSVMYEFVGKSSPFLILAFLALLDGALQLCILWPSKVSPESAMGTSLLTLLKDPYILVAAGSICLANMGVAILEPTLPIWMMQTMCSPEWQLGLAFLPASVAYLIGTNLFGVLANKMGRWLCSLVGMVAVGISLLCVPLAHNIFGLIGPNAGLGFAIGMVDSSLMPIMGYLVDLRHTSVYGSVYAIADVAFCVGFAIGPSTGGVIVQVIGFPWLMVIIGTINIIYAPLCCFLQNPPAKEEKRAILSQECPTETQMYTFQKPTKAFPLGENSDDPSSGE
Procedure: The quantity of label bound is measured after filtration of the assay mixture. Preferably, the label is a radioactive label. […] This can be done by standard graphic kinetic techniques such as the Lineweaver-Burke plot.
Incubation was performed at 29° C. for the time period indicated (from 2 minutes to 30 minutes). The assay was terminated by dilution in cold assay buffer followed by filtration through 0.2 μm Supor™ 200 membranes (Gelman, Ann Arbor, Mich.) and the bound radioactivity was measured. The cells used for the quantitative assay are selected in MPP^+ or screened with antibody to ensure that they express the transporter at high levels, as it is difficult to measure activity in this assay at low levels of transporter expression.
The quantitative transport test was performed as described above on wild-type CHO cells and mpp^res CHO cells.

[4] = tested on: wild-type CHO cells; assay: MTT cytotoxicity assay in wild-type CHO cells; assay type: cell-based, Chinese hamster; details: wild-type CHO, lower MPP+ concentrations
Procedure: Differential susceptibility to the respiratory complex I inhibitors MPP^+ and rotenone was shown by measuring toxicity by measuring general cell dehydrogenase activity with reduction of a tetrazolium dye (MTT) in a spectrophotometric plate assay as described by Hansen et al., J. Immunol. Methods 119:203-210 (1989). Briefly, a stock solution of MTT (3,(4,5-dimethylthiazol-2-yl)2,5-diphenyltetrazolium bromide) was dissolved at a concentration of 5 mg/ml in sterile phosphate buffered saline at room temperature. To each well was added 25 μl of the stock solution. After two hours of incubation at 37° C., 100 μl of extraction buffer (20% w/v of SDS in a solution of 50% each dimethylformamide and demineralized water with the pH adjusted to 4.7 with acetic acid and HCl). After an overnight incubation at 37° C., the optical densities at 570 nm were measured using a multiscanner, employing the extraction buffer as the blank. This assay was carried out in triplicate on 96-well plates (NUNC, Denmark). MPP^+ and rotenone at the concentrations indicated in FIG. 6a and 6b, respectively, was added to wild-type and MPP^+ -resistant CHO cells at approximately 50% confluence, and toxicity was assayed after 2-3 days by measuring general cell dehydrogenase activity with the reduction of the tetrazolium dye MTT (3,(4,5-dimethylthiazol-2-yl)2,5-diphenyl-tetrazolium bromide). After addition of the dye at a final concentration of 1 mg/ml, the cells were incubated for two hours at 37° C. and the formazan product was solubilized in 10% sodium dodecyl sulfate (SDS). The plates were maintained at 37° C. for an additional twenty hours and the optical density was determined in an ELISA plate reader at a test wavelength of 570 nm, a reference wavelength of 630 nm and a calibration setting of 1.99. All determinations were performed in triplicate and expressed as the mean, with the error bars representing standard deviation (FIG. 6a and 6b).

[5] = tested on: amines and tyrosine hydroxylase; details: cited from earlier work

COC(=O)[C@H]1[C@H]2C[C@@H]3c4[nH]c5cc(OC)ccc5c4CCN3C[C@H]2C[C@@H](OC(=O)c2cc(OC)c(OC)c(OC)c2)[C@@H]1OC [reserpine]
reversal of MPP+ resistance of transformants [1]: reversal of MPP^+ resistance; also recorded: reversible; also recorded: reversed | inhibition of bacterial BMR transporter [2]: inhibits | inhibition of dopamine transport [3]: inhibition by both reserpine and tetrabenazine | effect on MPP+ toxicity in wild-type cells [4]: very little reproducible effect | potentiation of amine depletion and reduction in tyrosine hydroxylase by MPP+ [5]: can potentiate the depletion of amines and reduction in tyrosine hydroxylase by MPP^+
